Reference: the CheMixHub viscosity set

Test: xn = mol fraction of the nth substance listed

C=CCNCC=C.CC(=O)O + O
101 kPa, x2 = 0.284
Details	viscosity [mPa·s]
298.15 K	80
308.15 K	45.7
318.15 K	27.6

CC(O)CN (configuration not stated) + O
viscosity [mPa·s]
Details	293.15 K	298.15 K	303.15 K	308.15 K	313.15 K	318.15 K	323.15 K
101 kPa, x1 = 0.01	–	–	–	–	–	0.7225	–
101 kPa, x1 = 0.06	–	–	–	–	–	1.155	–
101 kPa, x1 = 0.5995	–	–	–	–	12.85	–	–
101.3 kPa, x1 = 0.0126	1.228	1.03	0.894	0.781	0.682	–	0.573
101.3 kPa, x1 = 0.026	1.488	1.273	1.122	0.99	0.868	–	0.72
101.3 kPa, x1 = 0.0565	2.334	1.985	1.721	1.493	1.299	–	1.049

CCCCn1cc[n+](C)c1.[Cl-] + O
101 kPa
Details	viscosity [mPa·s]
293.15 K, x2 = 0.4982	235.1
293.15 K, x2 = 0.6132	85.9
303.15 K, x2 = 0.5535	83.3
308.15 K, x2 = 0.4982	92.5

CC[N+](CC)(CC)CC.[I-] + O
viscosity [mPa·s], 101 kPa
Details	x1 = 0.0005	x1 = 0.0009	x1 = 0.0018	x1 = 0.0027	x1 = 0.0036
293.15 K	1.004	1.018	1.037	1.051	1.074
298.15 K	0.893	0.902	0.916	0.931	0.943
303.15 K	0.826	0.835	0.846	0.859	0.872
308.15 K	0.697	0.703	0.713	0.723	0.733

NCCOCCOCCN.O=S(=O)([N-]S(=O)(=O)C(F)(F)F)C(F)(F)F.[Li+] + O
323.15 K, 101 kPa
Details	viscosity [mPa·s]
x1 = 0.0299	1.86
x1 = 0.0598	4.12
x1 = 0.1028	8.92
x1 = 0.1994	22.16
x1 = 0.2969	37.12
x1 = 0.3942	52.68
x1 = 0.4958	66.7
x1 = 0.6022	79.33
x1 = 0.6956	89.08
x1 = 0.8777	103.8

N[C@@H](CCC(=O)O)C(=O)O + O
viscosity [mPa·s], 101.3 kPa
Details	x1 = 0.000207	x1 = 0.00038	x1 = 0.00043	x1 = 0.000542	x1 = 0.000801	x1 = 0.000855	x1 = 0.0012
293.15 K	1.004	1.012	1.007	1.011	1.021	1.019	1.027
298.15 K	0.8955	0.9049	0.8994	0.9025	0.9086	0.9109	0.9194
303.15 K	0.8079	0.8164	0.8109	0.8148	0.8178	0.8217	0.8279
313.15 K	0.6741	0.6803	0.6764	0.6779	0.6818	0.6849	0.6903
323.15 K	0.5787	0.5857	0.581	0.5826	0.5849	0.5864	0.5895

N[C@@H](Cc1ccc(O)cc1)C(=O)O + O
303 K, 100 kPa
Details	viscosity [mPa·s]
x1 = 0.00933	0.8931
x1 = 0.00952	0.911
x1 = 0.00967	0.9501
x1 = 0.00975	0.9616
x1 = 0.0098	0.9874
x1 = 0.00983	1

O=P([O-])([O-])[O-].[K+].[K+].[K+] + O
viscosity [mPa·s], 101 kPa
Details	x1 = 0.0018	x1 = 0.0054	x1 = 0.0089	x1 = 0.012	x1 = 0.016
298.15 K	0.9999	1.068	1.197	1.397	1.648
303.15 K	0.8476	0.9587	1.107	1.268	1.492
308.15 K	0.7639	0.8485	0.9715	1.123	1.341

O=S(=O)(O)CCN1CCOCC1 + O
viscosity [mPa·s], 101.3 kPa
Details	x1 = 0.003662	x1 = 0.0073	x1 = 0.00959	x1 = 0.01075	x1 = 0.01417	x1 = 0.01767
298.15 K	0.918	0.98	1.006	1.035	1.101	1.153
308.15 K	0.743	0.792	0.814	0.836	0.893	0.932
318.15 K	0.616	0.657	0.676	0.693	0.737	0.772

O=[N+]([O-])[O-].O=[N+]([O-])[O-].[Ca+2] + O
viscosity [mPa·s], 100 kPa
Details	x1 = 0.00575	x1 = 0.006	x1 = 0.01	x1 = 0.01205	x1 = 0.0267	x1 = 0.03	x1 = 0.04	x1 = 0.04494	x1 = 0.06819	x1 = 0.07
298.15 K	0.963	0.964	1.052	1.051	1.384	1.328	1.955	1.954	3.256	3.257
323.15 K	0.599	0.599	0.66	0.66	0.852	0.844	1.207	1.204	1.928	1.931
